{"source": "patent US6433150B1", "about": "“Anthracycline analogues bearing latent alkylating substituents” (Board of Regents, The University of Texas System, priority 1990, dated 2002)", "key": {"[1]": {"system": "P388", "conditions": "cited from earlier work"}, "[2]": {"test": "Stability at neutral pH", "assay_type": "physicochemical", "text": "(§1) To the best of applicants' knowledge, dialdehyde monoacetals such as 10 have not been reported previously. [These should be versatile synthetons in organic synthesis since the acetal ester groups can be cleaved under extremely mild conditions (weak base or esterase activity)]. Condensation of 10 with doxorubicin, 11, in the presence of NaCNBH3 generated 2a directly in >50% yield. Evidence for the structure of 2a was obtained by ^1H and COSY NMR, and by mass spectrometry."}, "[3]": {"system": "CEM cells (human T-lymphoblastic cell line)", "test": "Cytotoxicity studies, CEM cells", "assay_type": "cell-based", "conditions": "for IC50: six days incubation with drug at 37° C."}, "[4]": {"system": "CEM (VLB) cells (human T-lymphoblastic cell line resistant to Velban (vinblastine))", "test": "Cytotoxicity studies, CEM (VLB) cells", "assay_type": "cell-based", "conditions": "for Resistance index ([CEM(VLB)]/[CEM]): ratio of IC50 values; for IC50: six days incubation with drug at 37° C., Velban (vinblastine) resistant line"}, "[5]": {"system": "8226R40 human myeloma cells", "test": "Potency to 8226R40 human myeloma cells", "assay_type": "cell-based"}, "[6]": {"test": "Solubility in aqueous media", "assay_type": "physicochemical", "text": "as §1"}}, "note": "Like-named read-outs stand apart in the source and are kept apart here.", "data": [{"compound": "COc1cccc2c1C(=O)c1c(O)c3c(c(O)c1C2=O)C[C@@](O)(C(C)=O)C[C@@H]3O[C@H]1C[C@H](N2CCOCC2)[C@H](O)[C@H](C)O1", "note": "[3′-Deamino-3-(4-morpholinyl)daunorubicin]", "values": [{"measurement": "T/C value against P388", "setting": "[1]", "result": 166, "unit": "%"}, {"measurement": "active dose relative to the dose of doxorubicin", "setting": "[1]", "result": "one-fortieth"}]}, {"compound": "COc1cccc2c1C(=O)c1c(O)c3c(c(O)c1C2=O)C[C@@](O)(C(=O)CO)C[C@@H]3O[C@H]1C[C@H](NCCCCC(OC(C)=O)OC(C)=O)[C@H](O)[C@H](C)O1.Cl", "note": "[Compound 2a, N-(5,5-Diacetoxypentyl) doxorubicin hydrochloride]", "values": [{"measurement": "stability at neutral pH", "setting": "[2]", "result": "stable"}, {"measurement": "times more toxic to the parent CEM cells than doxorubicin", "setting": "[3]; relative to doxorubicin", "result": 60, "unit": "times"}, {"measurement": "IC50", "setting": "[3]", "result": 0.15, "unit": "nM"}, {"measurement": "cross resistance against the velban resistant mutant", "setting": "[4]; compared with doxorubicin", "result": "markedly reduced cross resistance"}, {"measurement": "Resistance index ([CEM(VLB)]/[CEM])", "setting": "[4]", "result": 6}, {"measurement": "IC50", "setting": "[4]", "result": 1, "unit": "nM"}, {"measurement": "IC50", "setting": "[5]", "result": 1.5, "unit": "nM"}, {"measurement": "times more potent to 8226R40 human myeloma cells than doxorubicin", "setting": "[5]; relative to doxorubicin", "result": 400, "unit": "times"}, {"measurement": "solubility in aqueous media", "setting": "[6]", "result": "freely soluble"}]}, {"compound": "COc1cccc2c1C(=O)c1c(O)c3c(c(O)c1C2=O)C[C@@](O)(C(=O)CO)C[C@@H]3O[C@H]1C[C@H](N)[C@H](O)[C@H](C)O1", "note": "[Doxorubicin, reference compound]", "values": [{"measurement": "T/C value against P388", "setting": "[1]", "result": 160, "unit": "%"}, {"measurement": "IC50", "setting": "[3]; Homo sapiens, CCRF-CEM, 144 h", "result": 10, "unit": "nM"}, {"measurement": "IC50", "setting": "[4]; Homo sapiens, CEM-VLB, 144 h", "result": 1340, "unit": "nM"}, {"measurement": "Resistance index ([CEM(VLB)]/[CEM])", "setting": "[4]", "result": 134}, {"measurement": "IC50", "setting": "[5]; Homo sapiens", "result": 600, "unit": "nM"}]}, {"compound": "N-(2,2-Diacetoxyethyloxyethyl) doxorubicin HCl [Compound 2b]", "values": [{"measurement": "IC50", "setting": "[3]", "result": 3, "unit": "nM"}, {"measurement": "Resistance index ([CEM(VLB)]/[CEM])", "setting": "[4]", "result": 5}, {"measurement": "IC50", "setting": "[4]", "result": 15, "unit": "nM"}]}]}
